Laboratory results published in PubChem BioAssay AID1963827 (Molecular Pharmacology Branch, DTP, NCI, 2024).
pIC50: −log10 of the molar value.

Tested on: 994946-033-R-J1-PDC complex spheroid viability
Test: Anticancer human tumor 994946-033-R-J1-PDC patient-derived melanoma cell line growth inhibition [POLQ]
Settings: for pIC50: curve of first compound; for viability, T/C: stronger effect = lower value
Procedure, shortened: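 PDC + HUVEC + MSC complex spheroids; POLQ inhibitors ± partner drugs; top conc. at/near clinical Cmax, else 10 microM (SN-38 1 microM), half-log dilutions; 37 degrees C, 5% CO2.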

[1] = second compound 0.0316 µM, first compound 0.0316 µM
[2] = second compound 0.0316 µM, first compound 0.1 µM
[3] = second compound 0.0316 µM, first compound 0.316 µM
[4] = second compound 0.0316 µM, first compound 1 µM
[5] = second compound 0.0316 µM, first compound 3.16 µM
[6] = second compound 0.0316 µM, first compound 10 µM
[7] = second compound 0.1 µM, first compound 0.0316 µM
[8] = second compound 0.1 µM, first compound 0.1 µM
[9] = second compound 0.1 µM, first compound 0.316 µM
[10] = second compound 0.1 µM, first compound 1 µM
[11] = second compound 0.1 µM, first compound 3.16 µM
[12] = second compound 0.1 µM, first compound 10 µM
[13] = second compound 0.316 µM, first compound 0.0316 µM
[14] = second compound 0.316 µM, first compound 0.1 µM
[15] = second compound 0.316 µM, first compound 0.316 µM
[16] = second compound 0.316 µM, first compound 1 µM
[17] = second compound 0.316 µM, first compound 3.16 µM
[18] = second compound 0.316 µM, first compound 10 µM
[19] = second compound 1 µM, first compound 0.0316 µM
[20] = second compound 1 µM, first compound 0.1 µM
[21] = second compound 1 µM, first compound 0.316 µM
[22] = second compound 1 µM, first compound 1 µM
[23] = second compound 1 µM, first compound 3.16 µM
[24] = second compound 1 µM, first compound 10 µM
[25] = second compound 3.16 µM, first compound 0.0316 µM
[26] = second compound 3.16 µM, first compound 0.1 µM
[27] = second compound 3.16 µM, first compound 0.316 µM
[28] = second compound 3.16 µM, first compound 1 µM
[29] = second compound 3.16 µM, first compound 3.16 µM
[30] = second compound 3.16 µM, first compound 10 µM
[31] = second compound 10 µM, first compound 0.0316 µM
[32] = second compound 10 µM, first compound 0.1 µM
[33] = second compound 10 µM, first compound 0.316 µM
[34] = second compound 10 µM, first compound 1 µM
[35] = second compound 10 µM, first compound 3.16 µM
[36] = second compound 10 µM, first compound 10 µM
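Note: spheroids exposed to drugs for 7 days.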
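Throughout, for viability, T/C: 100% = DMSO vehicle treated spheroids.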

With `C=CC(=O)N1CCN(c2nc(=O)n(-c3c(C)ccnc3C(C)C)c3nc(-c4c(O)cccc4F)c(F)cc23)C(C)C1` (centres undefined) + Nc1ccc(C#CCN(C(=O)Cc2ncc(C(F)(F)F)cc2C(F)(F)F)c2ccc(F)cc2)nn1 as the compound, how does the pIC50 (second compound 0.0316 µM) read?
Its pIC50 is less than 5.00.

What about the pIC50 (second compound 0.1 µM) of the same compound?
The pIC50 was less than 5.00.

And the pIC50 (second compound 0.316 µM)?
Its pIC50 is less than 5.00.

What about the pIC50 (second compound 1 µM) of the same compound?
The pIC50 was less than 5.00.

And the pIC50 (second compound 3.16 µM)?
The pIC50 was less than 5.00.

What about the pIC50 (second compound 10 µM) of the same compound?
The pIC50 was less than 5.00.

And the viability, T/C [1]?
The viability, T/C was 92.1%.

And the viability, T/C [2]?
The viability, T/C was 94.9%.

What about the viability, T/C [3] of the same compound?
Its viability, T/C is 73.3%.

What about the viability, T/C [4] of the same compound?
The viability, T/C was 119%.

What about the viability, T/C [5] of the same compound?
The viability, T/C was 130%.

And the viability, T/C [6]?
Its viability, T/C is 86.9%.

What about the viability, T/C [7] of the same compound?
The viability, T/C was 102%.

What about the viability, T/C [8] of the same compound?
Its viability, T/C is 108%.

And the viability, T/C [9]?
Its viability, T/C is 75.2%.

What about the viability, T/C [10] of the same compound?
Its viability, T/C is 119%.

And the viability, T/C [11]?
Its viability, T/C is 74.6%.

What about the viability, T/C [12] of the same compound?
The viability, T/C was 70.7%.

What about the viability, T/C [13] of the same compound?
Its viability, T/C is 104%.

What about the viability, T/C [14] of the same compound?
Its viability, T/C is 52.8%.

And the viability, T/C [15]?
The viability, T/C was 112%.

What about the viability, T/C [16] of the same compound?
Its viability, T/C is 110%.

And the viability, T/C [17]?
The viability, T/C was 103%.

And the viability, T/C [18]?
The viability, T/C was 73.7%.

What about the viability, T/C [19] of the same compound?
Its viability, T/C is 94.2%.

And the viability, T/C [20]?
The viability, T/C was 125%.

What about the viability, T/C [21] of the same compound?
The viability, T/C was 108%.

What about the viability, T/C [22] of the same compound?
Its viability, T/C is 102%.

What about the viability, T/C [23] of the same compound?
The viability, T/C was 130%.

What about the viability, T/C [24] of the same compound?
Its viability, T/C is 122%.

And the viability, T/C [25]?
Its viability, T/C is 80.7%.

And the viability, T/C [26]?
The viability, T/C was 112%.

What about the viability, T/C [27] of the same compound?
Its viability, T/C is 83.8%.

What about the viability, T/C [28] of the same compound?
The viability, T/C was 119%.

And the viability, T/C [29]?
The viability, T/C was 118%.

And the viability, T/C [30]?
Its viability, T/C is 98.4%.

And the viability, T/C [31]?
Its viability, T/C is 110%.

And the viability, T/C [32]?
Its viability, T/C is 117%.

And the viability, T/C [33]?
Its viability, T/C is 110%.

And the viability, T/C [34]?
The viability, T/C was 105%.

What about the viability, T/C [35] of the same compound?
The viability, T/C was 120%.

And the viability, T/C [36]?
Its viability, T/C is 116%.

How did the pIC50 (second compound 0.0316 µM) turn out when `CC(C)n1c(=O)n(C)c2cnc3cc(F)c(-c4ccc(OCCCN5CCCCC5)nc4)cc3c21` + Nc1ccc(C#CCN(C(=O)Cc2ncc(C(F)(F)F)cc2C(F)(F)F)c2ccc(F)cc2)nn1 was run?
The pIC50 was less than 5.00.

And the pIC50 (second compound 0.1 µM)?
The pIC50 was less than 5.00.

And the pIC50 (second compound 0.316 µM)?
The pIC50 was less than 5.00.

And the pIC50 (second compound 1 µM)?
Its pIC50 is 5.05.

And the pIC50 (second compound 3.16 µM)?
Its pIC50 is 5.08.

And the pIC50 (second compound 10 µM)?
Its pIC50 is less than 5.00.

And the viability, T/C [1]?
The viability, T/C was 82.2%.

What about the viability, T/C [2] of the same compound?
Its viability, T/C is 103%.

And the viability, T/C [3]?
The viability, T/C was 80.6%.

And the viability, T/C [4]?
The viability, T/C was 98.5%.

What about the viability, T/C [5] of the same compound?
Its viability, T/C is 83.5%.

And the viability, T/C [6]?
Its viability, T/C is 66.4%.

What about the viability, T/C [7] of the same compound?
The viability, T/C was 113%.

What about the viability, T/C [8] of the same compound?
The viability, T/C was 95.3%.

And the viability, T/C [9]?
The viability, T/C was 52.7%.

What about the viability, T/C [10] of the same compound?
The viability, T/C was 84.7%.

And the viability, T/C [11]?
The viability, T/C was 77.5%.

What about the viability, T/C [12] of the same compound?
The viability, T/C was 67.5%.

What about the viability, T/C [13] of the same compound?
The viability, T/C was 88.9%.

And the viability, T/C [14]?
The viability, T/C was 80.9%.

What about the viability, T/C [15] of the same compound?
Its viability, T/C is 94.7%.

What about the viability, T/C [16] of the same compound?
Its viability, T/C is 101%.

And the viability, T/C [17]?
Its viability, T/C is 68.9%.

What about the viability, T/C [18] of the same compound?
The viability, T/C was 59.6%.

And the viability, T/C [19]?
The viability, T/C was 76.5%.

And the viability, T/C [20]?
The viability, T/C was 103%.

What about the viability, T/C [21] of the same compound?
The viability, T/C was 98%.

What about the viability, T/C [22] of the same compound?
Its viability, T/C is 88.8%.

And the viability, T/C [23]?
The viability, T/C was 93.6%.

What about the viability, T/C [24] of the same compound?
The viability, T/C was 45.6%.

What about the viability, T/C [25] of the same compound?
Its viability, T/C is 96.6%.

And the viability, T/C [26]?
Its viability, T/C is 97.7%.

And the viability, T/C [27]?
Its viability, T/C is 97.6%.

What about the viability, T/C [28] of the same compound?
Its viability, T/C is 115%.

What about the viability, T/C [29] of the same compound?
Its viability, T/C is 85%.

What about the viability, T/C [30] of the same compound?
The viability, T/C was 43%.

And the viability, T/C [31]?
Its viability, T/C is 103%.

And the viability, T/C [32]?
Its viability, T/C is 67.7%.

And the viability, T/C [33]?
The viability, T/C was 74.4%.

What about the viability, T/C [34] of the same compound?
Its viability, T/C is 82%.

And the viability, T/C [35]?
The viability, T/C was 87.9%.

What about the viability, T/C [36] of the same compound?
Its viability, T/C is 70.8%.
